8 compounds from ChEMBL document CHEMBL1201862, “PubChem BioAssay data set” (2004) can be followed below.

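Tested at 5 concentrations; 48 h exposure; 96-well plates; endpoints linearly interpolated, else capped at highest concentration. Abbreviation: GI50, concentration required for 50% inhibition of growth.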 Active and inactive are the calls of the source. No stated cut-off is given here; in the data, active = GI50 up to about 1.1 µM and inactive = higher.

Among the test systems are NCI-H460; OVCAR-3; M14; A549; SNB-75; OVCAR-8; NCI-H226; RPMI-8226; SK-MEL-2; HOP-62; HCC 2998; SW-620; SF-295; EKVX; NCI-H522; LOX IMVI; U-251; UACC-62; Malme-3M; SN12C.
Holding throughout (assay): NCI-60 cell line screen, 48 h

As to `O=C1/C(=C/c2cccs2)N=C(c2ccccc2)N1C1Nc2cc3c(cc2S1)NC(N1C(=O)/C(=C/c2cccs2)N=C1c1ccccc1)S3` (stereo unspecified), the GI50 in the experiment on NCI-H460 was 6.97 µM (inactive); in the experiment on OVCAR-3, 30.7 µM (inactive); in the experiment with M14 it was 18.2 µM (inactive); with A549 it was 14.6 µM (inactive); in the experiment with SNB-75 it was 25.4 µM (inactive); with OVCAR-8 it was 17.1 µM (inactive). Moreover, the GI50 is 20.3 µM (inactive) in the experiment with NCI-H226; 19.8 µM (inactive) in the experiment on RPMI-8226; 18.6 µM (inactive) in the experiment on SK-MEL-2; 30.8 µM (inactive) in the experiment with HOP-62; 19.3 µM (inactive) in the experiment with HCC 2998; 26.9 µM (inactive) in the experiment with SW-620. For the same compound, the GI50 in the experiment with SF-295 is 60.1 µM (inactive); with EKVX it was 15.6 µM (inactive); in the experiment on NCI-H522, 13.4 µM (inactive); in the experiment with LOX IMVI, 15 µM (inactive); in the experiment with U-251, 16 µM (inactive).
As for `N#CCC(=O)N/N=C1\C(=O)N(c2ccc(Cl)cc2)C(=O)C(=O)C1c1nc2ccccc2o1` (stereo unspecified), the GI50 with NCI-H460, with OVCAR-3, in the experiment on M14, in the experiment with A549, in the experiment on SNB-75 and in the experiment with OVCAR-8 was > 100 µM (inactive) each time. Also, the GI50 in the experiment on NCI-H226, in the experiment with UACC-62, with SK-MEL-2, in the experiment with HOP-62, with HCC 2998 and with Malme-3M was > 100 µM (inactive) each time. Also, the GI50 in the experiment with SW-620, with SF-295, in the experiment with EKVX, with SN12C, in the experiment with NCI-H522 and in the experiment on U-251 was > 100 µM (inactive) in each case.
With `CN(COC(=O)C(C)(C)C)c1nc(N(C)COC(=O)C(C)(C)C)nc(N(C)COC(=O)C(C)(C)C)n1`, the GI50 with NCI-H460 is 60 µM (inactive); with OVCAR-3 it was > 100 µM (inactive); with M14 it was 19 µM (inactive); with A549, < 0.01 µM (active); in the experiment with SNB-75 it was 50.2 µM (inactive); with OVCAR-8, > 10 µM (inactive). Moreover, the GI50 in the experiment with NCI-H226 was > 100 µM (inactive); in the experiment with UACC-62, > 10 µM (inactive); with SK-MEL-2, 61.1 µM (inactive); in the experiment with HOP-62, > 100 µM (inactive); in the experiment on HCC 2998 it was 34.3 µM (inactive); in the experiment with Malme-3M it was 12.7 µM (inactive). The GI50 in the experiment on SW-620 was 22 µM (inactive); in the experiment with SF-295, 94.6 µM (inactive); with EKVX it was > 100 µM (inactive); in the experiment with SN12C it was > 100 µM (inactive); with NCI-H522 it was 77.1 µM (inactive).
Take `C/C(=C/c1c(C)[nH]c(=O)[nH]c1=O)C(=O)O`: the GI50 in the experiment on NCI-H460, with OVCAR-3, in the experiment with A549, in the experiment with SNB-75, in the experiment on NCI-H226 and in the experiment with RPMI-8226 was > 1370 µM (inactive) in each case. The GI50 in the experiment on UACC-62, with HOP-62, with HCC 2998, in the experiment with Malme-3M, in the experiment with SW-620 and with SF-295 was > 1370 µM (inactive) each time. For the same compound, the GI50 is 1290 µM (inactive) in the experiment on EKVX; > 1370 µM (inactive) in the experiment with SN12C; > 1370 µM (inactive) in the experiment on NCI-H522; > 1370 µM (inactive) with LOX IMVI; > 1370 µM (inactive) in the experiment on U-251.
Consider `CCOC(=O)C1C(=O)CN2CCc3c([nH]c4ccccc34)C12C(=O)OCC` (stereo unspecified), for which the GI50 in the experiment with NCI-H460, in the experiment on OVCAR-3, with M14, in the experiment with A549, in the experiment with SNB-75 and in the experiment on OVCAR-8 was > 100 µM (inactive) throughout. In addition, the GI50 with NCI-H226, in the experiment with UACC-62, in the experiment with SK-MEL-2, in the experiment with HOP-62, in the experiment with HCC 2998 and with Malme-3M was > 100 µM (inactive) each time. In addition, the GI50 in the experiment on SW-620, in the experiment with SF-295, with EKVX, with SN12C, with NCI-H522 and in the experiment with LOX IMVI was > 100 µM (inactive) in each case. For the same compound, the GI50 with U-251 is > 100 µM (inactive).
As to `CSC1=Nc2ccccc2N(C)c2c1c(-c1ccccc1)nn2C`, the GI50 was 21.9 µM (inactive) with NCI-H460; 15.2 µM (inactive) in the experiment on OVCAR-3; 41.9 µM (inactive) in the experiment with M14; 50.4 µM (inactive) in the experiment with A549; > 100 µM (inactive) with SNB-75; 32.7 µM (inactive) with OVCAR-8. Besides, the GI50 in the experiment on RPMI-8226 is 12.7 µM (inactive); with UACC-62, 35.2 µM (inactive); with SK-MEL-2 it was 23.2 µM (inactive); in the experiment on HCC 2998, 13.3 µM (inactive); with SW-620 it was 40.6 µM (inactive); in the experiment with SF-295, 4.94 µM (inactive). The GI50 in the experiment on EKVX was 65.5 µM (inactive); with SN12C, 54.5 µM (inactive); with NCI-H522, 7.4 µM (inactive); in the experiment on LOX IMVI, 29.1 µM (inactive); in the experiment on U-251, 31.4 µM (inactive).
For the compound `CCOP(=O)(OCC)C(Cc1c[nH]c2ccccc12)C(=O)O` (stereo unspecified), the GI50 in the experiment on NCI-H460, with OVCAR-3, in the experiment on M14, with A549, with SNB-75 and with OVCAR-8 was > 100 µM (inactive) each time. The GI50 with NCI-H226, with RPMI-8226, with SK-MEL-2, with HOP-62, in the experiment on HCC 2998 and in the experiment on SW-620 was > 100 µM (inactive) in each case. Moreover, the GI50 with SF-295, in the experiment on SN12C, with NCI-H522, in the experiment on LOX IMVI and in the experiment with U-251 was > 100 µM (inactive) throughout.
Regarding `C[C@@H]1O[C@]2(O)[C@@H]3CCCN3S(=O)(=O)CCN2C1=O`, the GI50 in the experiment with NCI-H460, in the experiment on OVCAR-3, in the experiment with M14, in the experiment with A549, in the experiment on SNB-75 and with OVCAR-8 was > 100 µM (inactive) in each case. In addition, the GI50 in the experiment with NCI-H226, in the experiment with RPMI-8226, in the experiment on UACC-62, in the experiment on HOP-62, with HCC 2998 and in the experiment on Malme-3M was > 100 µM (inactive) in each case. Further, the GI50 in the experiment on SW-620, in the experiment with SF-295, in the experiment with EKVX, in the experiment with SN12C, in the experiment on NCI-H522 and with LOX IMVI was > 100 µM (inactive) in each case. Besides, the GI50 in the experiment on U-251 was > 100 µM (inactive).
